# Measurements published in publication doi:10.1101/2023.03.20.532734v1 (bioRxiv, 2023).
# pEC50: −log10 of the molar value. Residues, ends and D or L forms follow the SMILES beside them.
# Key:
# [1] = ref [29], [30]; cited from earlier work
# WT GLP-2R = target: T1, WT GLP-2R (Homo sapiens, UniProt O95838); assay: GLP-2R signaling assay, cAMP measurements; format: cell-based
# T1 sequence (O95838 1-553): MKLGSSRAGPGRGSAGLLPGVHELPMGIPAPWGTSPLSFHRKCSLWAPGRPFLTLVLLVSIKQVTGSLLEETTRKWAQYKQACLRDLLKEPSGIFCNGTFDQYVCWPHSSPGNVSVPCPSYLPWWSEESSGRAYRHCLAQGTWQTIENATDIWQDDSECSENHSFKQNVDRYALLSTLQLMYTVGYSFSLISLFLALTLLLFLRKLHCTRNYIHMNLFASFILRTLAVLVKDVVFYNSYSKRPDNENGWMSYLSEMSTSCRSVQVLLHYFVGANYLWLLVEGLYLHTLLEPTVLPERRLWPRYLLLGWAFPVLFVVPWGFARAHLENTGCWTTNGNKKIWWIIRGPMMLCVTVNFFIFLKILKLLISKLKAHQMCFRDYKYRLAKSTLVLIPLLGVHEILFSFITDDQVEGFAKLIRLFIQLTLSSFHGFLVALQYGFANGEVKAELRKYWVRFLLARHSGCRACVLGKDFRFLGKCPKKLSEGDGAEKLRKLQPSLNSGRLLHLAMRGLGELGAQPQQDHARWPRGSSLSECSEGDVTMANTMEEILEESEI
pEC50 (WT GLP-2R),SMILES,"half-life, whole body metabolism in vivo [1]"
,"CC[C@H](C)[C@H](NC(=O)[C@H](Cc1ccccc1)NC(=O)[C@H](CCC(=O)O)NC(=O)[C@H](CCCCN)NC(=O)[C@H](C)NC(=O)[C@H](C)NC(=O)[C@H](CCC(N)=O)NC(=O)CNC(=O)[C@H](CCC(=O)O)NC(=O)[C@H](CC(C)C)NC(=O)[C@H](Cc1ccc(O)cc1)NC(=O)[C@H](CO)NC(=O)[C@H](CO)NC(=O)[C@@H](NC(=O)[C@H](CC(=O)O)NC(=O)[C@H](CO)NC(=O)[C@@H](NC(=O)[C@H](Cc1ccccc1)NC(=O)[C@@H](NC(=O)CNC(=O)[C@H](CCC(=O)O)NC(=O)[C@H](C)NC(=O)[C@@H](N)Cc1c[nH]cn1)[C@@H](C)O)[C@@H](C)O)C(C)C)C(=O)N[C@@H](C)C(=O)N[C@@H](Cc1c[nH]c2ccccc12)C(=O)N[C@@H](CC(C)C)C(=O)N[C@H](C(=O)N[C@@H](CCCCN)C(=O)NCC(=O)N[C@@H](CCCN=C(N)N)C(=O)NCC(=O)O)C(C)C [GLP-1, glucagon-like peptide 1]",1 to 2 min
9.58,CC[C@H](C)[C@H](NC(=O)[C@H](Cc1ccccc1)NC(=O)[C@H](CC(=O)O)NC(=O)[C@H](CCCNC(=N)N)NC(=O)[C@H](C)NC(=O)[C@H](C)NC(=O)[C@H](CC(C)C)NC(=O)[C@H](CC(N)=O)NC(=O)[C@H](CC(=O)O)NC(=O)[C@H](CC(C)C)NC(=O)[C@@H](NC(=O)[C@@H](NC(=O)[C@H](CC(N)=O)NC(=O)[C@H](CCSC)NC(=O)[C@H](CCC(=O)O)NC(=O)[C@H](CC(=O)O)NC(=O)[C@H](CO)NC(=O)[C@H](Cc1ccccc1)NC(=O)[C@H](CO)NC(=O)CNC(=O)[C@H](CC(=O)O)NC(=O)[C@H](CO)NC(=O)[C@@H](N)Cc1c[nH]cn1)[C@@H](C)O)[C@@H](C)CC)C(=O)N[C@@H](CC(N)=O)C(=O)N[C@@H](Cc1c[nH]c2ccccc12)C(=O)N[C@@H](CC(C)C)C(=O)N[C@H](C(=O)N[C@@H](CCC(N)=O)C(=O)N[C@H](C(=O)N[C@@H](CCCCN)C(=O)N[C@H](C(=O)N[C@H](C(=O)N[C@@H](CC(=O)O)C(=O)O)[C@@H](C)O)[C@@H](C)CC)[C@@H](C)O)[C@@H](C)CC [GLP-2 Ser2] (H-HSDGSFSDEMNTILDNLAARDFINWLIQTKITD-OH),
,"CC[C@H](C)[C@H](NC(=O)[C@H](Cc1ccccc1)NC(=O)[C@H](CC(=O)O)NC(=O)[C@H](CCCN=C(N)N)NC(=O)[C@H](C)NC(=O)[C@H](C)NC(=O)[C@H](CC(C)C)NC(=O)[C@H](CC(N)=O)NC(=O)[C@H](CC(=O)O)NC(=O)[C@H](CC(C)C)NC(=O)[C@@H](NC(=O)[C@@H](NC(=O)[C@H](CC(N)=O)NC(=O)[C@H](CCSC)NC(=O)[C@H](CCC(=O)O)NC(=O)[C@H](CC(=O)O)NC(=O)[C@H](CO)NC(=O)[C@H](Cc1ccccc1)NC(=O)[C@H](CO)NC(=O)CNC(=O)[C@H](CC(=O)O)NC(=O)[C@H](C)NC(=O)[C@@H](N)Cc1cnc[nH]1)[C@@H](C)O)[C@@H](C)CC)C(=O)N[C@@H](CC(N)=O)C(=O)N[C@@H](Cc1c[nH]c2ccccc12)C(=O)N[C@@H](CC(C)C)C(=O)N[C@H](C(=O)N[C@@H](CCC(N)=O)C(=O)N[C@H](C(=O)N[C@@H](CCCCN)C(=O)N[C@H](C(=O)N[C@H](C(=O)N[C@@H](CC(=O)O)C(=O)O)[C@@H](C)O)[C@@H](C)CC)[C@@H](C)O)[C@@H](C)CC [GLP-2, glucagon-like peptide 2]",7 min
